From patent US20130252890A1, “6,7-DIHYDRO-5H-BENZO[7]ANNULENE DERIVATIVES, PROCESS FOR PREPARATION THEREOF, PHARMACEUTICAL PREPARATIONS COMPRISING THEM, AND THE USE THEREOF FOR PRODUCTION OF MEDICAMENTS” (BAYER INTELLECTUAL PROPERTY GMBH, priority 2010, published 2013)

Target: T1, oestrogen receptor (ER) (Homo sapiens, UniProt P03372)
T1 construct: These MVLN cells express, along with the functional oestrogen receptor (ER), a reporter construct; endogenous in cells; host or cells: MVLN cells (MCF7 derivative carrying a luciferase reporter construct)
T1 sequence (P03372 1-595): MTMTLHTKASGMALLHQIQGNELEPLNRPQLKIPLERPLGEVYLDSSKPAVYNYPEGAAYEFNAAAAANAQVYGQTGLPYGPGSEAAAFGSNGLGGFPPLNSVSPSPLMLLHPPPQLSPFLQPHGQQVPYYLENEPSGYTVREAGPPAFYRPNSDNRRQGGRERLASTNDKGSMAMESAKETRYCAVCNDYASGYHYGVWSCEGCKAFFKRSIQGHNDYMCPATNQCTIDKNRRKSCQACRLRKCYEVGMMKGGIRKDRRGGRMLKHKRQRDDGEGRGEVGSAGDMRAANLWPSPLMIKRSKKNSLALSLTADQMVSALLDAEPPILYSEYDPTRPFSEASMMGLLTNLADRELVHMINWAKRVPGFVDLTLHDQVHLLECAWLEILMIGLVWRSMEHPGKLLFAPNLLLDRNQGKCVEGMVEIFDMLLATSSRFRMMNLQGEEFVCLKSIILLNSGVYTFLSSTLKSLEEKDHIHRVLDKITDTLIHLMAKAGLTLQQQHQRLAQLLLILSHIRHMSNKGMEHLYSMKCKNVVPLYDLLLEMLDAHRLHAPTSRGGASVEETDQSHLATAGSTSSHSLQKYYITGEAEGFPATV
Assay: Anti-oestrogenic action in MVLN cells (inhibition of estradiol-induced luciferase)
Format: cell-based
Conditions: inhibition of estradiol-induced luciferase signal, value of Ex. 44 is a mean value, read-out: Antioestrogenic action in vitro: MVLN transactivation antagonism IC50
Summary of the method: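 MVLN cells, MCF7 breast cancer derivatives carrying functional ER plus an ER-activated luciferase reporter, were treated with compounds in the presence of estradiol. Anti-oestrogenic activity taken as inhibition of the estradiol-induced luciferase signal.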

SMILES: CN(CCCCCCC1=C(c2cc(F)cc(F)c2)CCCc2cc(O)ccc21)CCCCS(=O)(=O)CCCC(F)(F)F [Example 44, 8-(3,5-Difluorophenyl)-9-[6-(methyl{4-[(4,4,4-trifluorobutyl)sulphonyl]butyl}amino)hexyl]-6,7-dihydro-5H-benzo[7]annulen-3-ol]
- IC50: 5.6 nM
